# Where two headings read alike, the source gives them in different places.
# Key:
# [1] = target: IMP-1 (Serratia marcescens, UniProt P52699); assay: biochemical; type: biochemical
# Summary of the method: (§1)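 Test compound, enzyme and the FRET cephalosporin substrate CCF2-FA are incubated together for 2 hours at 25° C. Cleavage is followed by fluorescence, and IC50 values are derived from semi-logarithmic inhibition curves fitted with a 4-parameter model.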
# [2] = target: NDM-1 (Klebsiella pneumoniae, UniProt C7C422); assay: biochemical; type: biochemical; details: CCF2-FA substrate, 2 hours at 25° C; read-out: NDM-1 IC50
# Summary of the method: as §1
# [3] = target: VIM-1 (Pseudomonas aeruginosa (strain ATCC 15692 / DSM 22644 / CIP 104116 / JCM 14847 / LMG 12228 / 1C / PRS 101 / PAO1), UniProt A0A0F7KYQ8); assay: biochemical; details: CCF2-FA substrate, 2 hours at 25° C
# Summary of the method: as §1
# [4] = system: Escherichia coli expressing NDM-1 (CLB30005, CLB30016); type: cell-based; details: with imipenem 1 μg/ml, 95% inhibition of bacterial growth
# Summary of the method: (§2)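 Clinical strains grown overnight on blood agar, then diluted 1:100 in 1.1× CAMHB and exposed to test compound with imipenem at 1 μg/ml. Incubation was 22–24 h at 35° C; growth was read by absorbance to find the compound concentration restoring imipenem susceptibility.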
# [5] = system: Klebsiella pneumoniae expressing VIM-1 (IHMA599644); type: cell-based; details: with imipenem 1 μg/ml, 95% inhibition of bacterial growth
# Summary of the method: as §2
# [6] = system: Serratia marcescens expressing IMP-1 (CL5741); type: cell-based; details: with imipenem 1 μg/ml, 95% inhibition of bacterial growth
# Summary of the method: as §2
# [7] = system: P. aeruginosa expressing IMP-1, efflux+ (MB9798); type: cell-based, Pseudomonas aeruginosa; details: for P. aeruginosa expressing IMP-1, efflux+ (MB9798) MITC95: imipenem at 2 μg/mL, in the presence of a class A, C, D serine β-lactamase inhibitor closely related to relebactam; for Efflux ratio: ratio MITC95 PA_9798/MITC95 PA_9799
# Description: (§3) The strain background is Pseudomonas aeruginosa PAO1.
# [8] = system: P. aeruginosa expressing IMP-1, efflux− (MB9799); assay: Efflux: concentration of MBL inhibitor which restores susceptibility to imipenem; type: cell-based, Pseudomonas aeruginosa; details: imipenem at 2 μg/mL, in the presence of a class A, C, D serine β-lactamase inhibitor closely related to relebactam
# Description: as §3
# [9] = CCF2-FA substrate, 2 hours at 25° C, read-out: IMP-1 IC50
# IMP-1, sequence (P52699 whole entry, looked up, species assumed): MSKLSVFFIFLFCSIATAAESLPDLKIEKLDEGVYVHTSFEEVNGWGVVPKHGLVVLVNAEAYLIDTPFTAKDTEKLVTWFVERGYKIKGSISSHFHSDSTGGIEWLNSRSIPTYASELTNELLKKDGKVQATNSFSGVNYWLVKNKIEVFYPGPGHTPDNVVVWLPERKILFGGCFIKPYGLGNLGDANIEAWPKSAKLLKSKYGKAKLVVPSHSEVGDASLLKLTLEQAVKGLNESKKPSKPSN
# NDM-1, sequence (C7C422 whole entry, looked up, species assumed): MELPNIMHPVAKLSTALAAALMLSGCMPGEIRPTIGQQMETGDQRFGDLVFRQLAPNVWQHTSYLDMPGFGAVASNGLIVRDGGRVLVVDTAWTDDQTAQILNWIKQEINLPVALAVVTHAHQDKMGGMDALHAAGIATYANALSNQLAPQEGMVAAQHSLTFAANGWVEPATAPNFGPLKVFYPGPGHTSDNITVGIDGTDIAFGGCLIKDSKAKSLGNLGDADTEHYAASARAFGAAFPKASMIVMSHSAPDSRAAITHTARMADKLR
Structure (SMILES),"IC50 [1, 9] [pM]",IC50 [2] [pM],IC50 [3] [pM],Escherichia coli expressing NDM-1 (CLB30016) MITC95 [4] [µM],Klebsiella pneumoniae expressing VIM-1 (IHMA599644) MITC95 [5] [µM],Serratia marcescens expressing IMP-1 (CL5741) MITC95 [6] [µM],"P. aeruginosa expressing IMP-1, efflux+ (MB9798) MITC95 [7] [µM]",Efflux ratio [7],"P. aeruginosa expressing IMP-1, efflux− (MB9799) MITC95 [8] [µM]",Escherichia coli MITC95 ([4]; NDM-1 (CLB30016)) [µM],Klebsiella pneumoniae MITC95 ([5]; VIM-1 (IHMA599644)) [µM],Serratia marcescens MITC95 ([6]; IMP-1 (CL5741)) [µM],IC50 [1] [pM]
"Nc1ccc2c(-c3ccc(S(=O)(=O)C4CNC4)c(S(N)(=O)=O)c3-c3nnn[nH]3)ccnc2n1 [Example 27, 3-(7-amino-1,8-naphthyridin-4-yl)-6-(azetidin-3-ylsulfonyl)-2-(1H-tetrazol-5-yl)benzenesulfonamide]",1750,185,330,6.25,3.125,3.125,6.25,4.00,1.563,–,–,–,–
"NS(=O)(=O)c1c(S(=O)(=O)C2CNC2)ccc(-c2cccc3[nH]cnc23)c1-c1nn[nH]n1 [Example 332, 6-(Azetidin-3-ylsulfonyl)-3-(1H-benzo[d]imidazol-4-yl)-2-(2H-tetrazol-5-yl)benzenesulfonamide]",558,124,274,–,–,–,6.25,4.00,1.563,0.7813,3.125,1.563,–
"NCCS(=O)(=O)c1ccc(-c2cnn3c2CCC3)c(-c2nnn[nH]2)c1S(N)(=O)=O.O=C(O)C(F)(F)F [Example 152, 2-((4-(5,6-dihydro-4H-pyrrolo[1,2-b]pyrazol-3-yl)-2-sulfamoyl-3-(1H-tetrazol-5-yl)phenyl)sulfonyl)ethanaminium 2,2,2-trifluoroacetate]",4790,5830,2010,3.125,6.25,6.25,50,31.99,1.563,–,–,–,–
"Nc1nc2ccc(-c3ccc(S(=O)(=O)C4CNC4)c(S(N)(=O)=O)c3-c3nn[nH]n3)cc2o1 [Example 29, 3-(2-aminobenzo[d]oxazol-6-yl)-6-(azetidin-3-ylsulfonyl)-2-(2H-tetrazol-5-yl)benzenesulfonamide]",313,240,328,1.563,3.125,1.563,3.125,2.00,1.563,–,–,–,–
"Nc1nc2ccc(-c3ccc(S(=O)(=O)C4CNC4)c(S(N)(=O)=O)c3-c3nn[nH]n3)cn2n1 [Example 215, 3-(2-amino-[1,2,4]triazolo[1,5-a]pyridin-6-yl)-6-(azetidin-3-ylsulfonyl)-2-(2H-tetrazol-5-yl)benzenesulfonamide]",2190,239,298,3.125,6.25,3.125,6.25,2.00,3.125,–,–,–,–
"CS(=O)(=O)N1CC(S(=O)(=O)c2ccc(-c3cccc4[nH]c(N)nc34)c(-c3nn[nH]n3)c2S(N)(=O)=O)C1 [Example 55, 3-(2-amino-1H-benzo[d]imidazol-4-yl)-6-(1-(methylsulfonyl)azetidin-3-ylsulfonyl)-2-(2H-tetrazol-5-yl)benzenesulfonamide]",1420,81.8,312,3.125,6.25,3.125,50,31.99,1.563,–,–,–,–
"NS(=O)(=O)c1c(S(=O)(=O)C2CNC2)ccc(-c2cccn3cncc23)c1-c1nnn[nH]1 [Example 60, 6-(azetidin-3-ylsulfonyl)-3-(imidazo[1,5-a]pyridin-8-yl)-2-(1H-tetrazol-5-yl)benzenesulfonamide]",2350,811,408,1.563,6.25,3.125,12.5,4.00,3.125,–,–,–,–
"NCCS(=O)(=O)c1ccc(-c2cccc3nc(N)oc23)c(-c2nn[nH]n2)c1S(N)(=O)=O [Example 74, 3-(2-aminobenzo[d]oxazol-7-yl)-6-(2-aminoethylsulfonyl)-2-(2H-tetrazol-5-yl)benzenesulfonamide]",–,96,172,0.7813,3.125,1.563,3.125,4.00,0.7813,–,–,–,989
"CS(=O)(=O)c1ccc(-c2ccc(NS(=O)(=O)C3CC3)cc2)c(-c2nn[nH]n2)c1S(N)(=O)=O [Example 241, 4′-(Cyclopropanesulfonamido)-4-(methylsulfonyl)-2-(2H-tetrazol-5-yl)-[1,1′-biphenyl]-3-sulfonamide]",44.4,658,86.8,6.25,12.5,3.125,12.5,8.00,1.563,–,–,–,–
"NS(=O)(=O)c1c(S(=O)(=O)C2CNC2)ccc(-c2cccc(C3CCC(=O)N3)c2)c1-c1nnn[nH]1.O=C(O)C(F)(F)F (stereo not drawn) [Example 125, 3-((3′-(5-oxopyrrolidin-2-yl)-3-sulfamoyl-2-(1H-tetrazol-5-yl)-[1,1′-biphenyl]-4-yl)sulfonyl)azetidin-1-ium 2,2,2-trifluoroacetate]",5230,4020,2540,6.25,6.25,6.25,50,16.00,3.125,–,–,–,–
"Cn1c(N)nc2cccc(-c3ccc(S(=O)(=O)C4CNC4)c(S(N)(=O)=O)c3-c3nn[nH]n3)c21 [Example 19, 3-(2-Amino-1-methyl-1H-benzo[d]imidazol-7-yl)-6-(azetidin-3-ylsulfonyl)-2-(2H-tetrazol-5-yl)benzenesulfonamide]",2500,108,153,0.7813,1.563,1.563,6.25,4.00,1.563,–,–,–,–
